Experimental data published in paper PMC7114321 (Antiviral Research, 2005).
pIC50: −log10 of the molar value. Converted amounts (≈) assume the structure as drawn.

Experiments:
Sindbis virus = conditions: cited from earlier work
in vitro = conditions: African green monkey, CC50 of cell death

In the case of COc1ccc([C@@H]2CC(=O)c3c(O)cc(O)cc3O2)cc1O [Hesperetin], the “IC50, inhibitory activity on Sindbis virus infection” value (Sindbis virus) is given as 20.5 µg/mL (≈ 0.0678 mM) and the pIC50 (Sindbis virus; read-out: IC50, inhibitory activity on Sindbis virus infection) is given as roughly 4.17.

Compound O=C1/C(=C2\Nc3ccccc3C2=O)Nc2ccccc21 [Indigo] has a CC50 (in vitro) of 917 µg/mL (≈ 3.5 mM).

With C=CCC(=NOS(=O)(=O)O)S[C@@H]1O[C@H](CO)[C@@H](O)[C@H](O)[C@H]1O (stereo in doubt) [Sinigrin] the CC50 (Vero cells) was greater than 10000 µM and the “CC50 of cell death” value (Vero cells) was >5000 (>10,000 μM) μg/ml.
